ChEMBL document CHEMBL3407399, “BPIC: A novel anti-tumor lead capable of inhibiting inflammation and scavenging free radicals” (Bioorg Med Chem Lett, 2015)
Active and inactive are the calls of the source. The rule behind the calls is not given here.

Experiments:
[1] = tested on: CCRF S-180; assay: Antiproliferative activity against mouse S180 cells assessed as cell viability after 48 hrs by MTT assay; format: functional, cell-based; details: CCRF S-180, 48 h
[2] = tested on: Mus musculus; assay: Antiinflammatory activity against xylene-induced male ICR mouse ear edema model assessed as plasma IL-8 at 1 umol/kg, ip relative to NS; format: functional, organism-based
[3] = Antiproliferative activity against human SH-SY5Y cells assessed as cell viability after 48 hrs by MTT assay; format: functional, cell-based
[4] = tested on: HepG2; assay: Antiproliferative activity against human HepG2 cells assessed as cell viability after 48 hrs by MTT assay; format: functional, cell-based; details: HepG2, 48 h
[5] = Antioxidant activity assessed as NO free radical scavenging activity produced from N-methyl-D-glucamine dithiocarbamate by ESR assay; format: physicochemical
[6] = tested on: CCRF S-180; assay: Antitumor activity against mouse S180 cells allografted in male ICR mouse assessed as tumor growth inhibition at 0.1 umol/kg, po treated ervery day for 7 days relative to NS control; format: functional, organism-based
[7] = tested on: HT-29; assay: Antiproliferative activity against human HT-29 cells assessed as cell viability after 48 hrs by MTT assay; format: functional, cell-based; details: HT-29, 48 h
[8] = tested on: K562; assay: Antiproliferative activity against human K562 cells assessed as cell viability after 48 hrs by MTT assay; format: functional, cell-based; details: K562, 48 h
[9] = Antioxidant activity assessed as OH free radical scavenging activity produced from dimethylpyridine-N-oxide by ESR assay; format: physicochemical
[10] = Antioxidant activity assessed as O2 free radical scavenging activity produced from dimethylpyridine-N-oxide by ESR assay; format: physicochemical
[11] = tested on: A549; assay: Antiproliferative activity against human A549 cells assessed as cell viability after 48 hrs by MTT assay; format: functional, cell-based; details: A549, 48 h
[12] = tested on: Mus musculus; assay: Antiinflammatory activity in male ICR mouse assessed as xylene-induced ear edema at 1 umol/kg, ip relative to NS; format: functional, organism-based
[13] = Antiproliferative activity against human HL60 cells assessed as cell viability after 48 hrs by MTT assay; format: functional, cell-based; details: HL-60, 48 h
[14] = tested on: HeLa; assay: Antiproliferative activity against human HeLa cells assessed as cell viability after 48 hrs by MTT assay; format: functional, cell-based
[15] = tested on: CCRF S-180; assay: Antitumor activity against mouse S180 cells allografted in male ICR mouse assessed as tumor growth inhibition treated orally ervery day for 7 days; format: functional
[16] = tested on: Calf thymus DNA; assay: Binding affinity to calf thymus DNA at 40 uM by UV-spectrophotometric analysis; format: nucleic-acid assay; details: Bos taurus
[17] = tested on: Mus musculus; assay: Antiinflammatory activity against xylene-induced male ICR mouse ear edema model assessed as plasma TNFalpha at 1 umol/kg, ip relative to NS; format: functional, organism-based
[18] = tested on: Calf thymus DNA; assay: Binding affinity to calf thymus DNA at 40 uM by fluoresce spectrum analysis; format: nucleic-acid assay; details: Bos taurus

Compound | IC50 [1] [µM] | inhibition [2] | IC50 [3] [µM] | IC50 [4] [µM] | EC50 [5] [µM] | inhibition [6] | IC50 [7] [µM] | IC50 [8] [µM] | EC50 [9] [µM] | EC50 [10] [µM] | IC50 [11] [µM] | inhibition [12] | IC50 [13] [µM] | IC50 [14] [µM] | inhibition [15] | Activity [16] | inhibition [17] | Activity [18]
COc1cccc2c1C(=O)c1c(O)c3c(c(O)c1C2=O)C[C@@](O)(C(=O)CO)C[C@@H]3O[C@H]1C[C@H](N)[C@H](O)[C@H](C)O1 [DOXORUBICIN] | 9.25 |  |  |  |  |  |  |  |  |  |  |  |  |  |  |  |  | 
COC(=O)c1cc(-c2nc(C(=O)OCc3ccccc3)cc3c2[nH]c2ccccc23)ccc1O | 0.96 | Active | 0.96 | 0.96 | 73 | Dose-dependent effect | 0.96 | 0.96 | 0.17 | 285 | 0.96 | Active | 0.96 | 0.96 | Dose-dependent effect | Active | Active | Active
